Earlier results on one molecule are cited in patent US9512180B2, “Compstatin analogs” (THE REGENTS OF THE UNIVERSITY OF CALIFORNIA, priority 2012, dated 2016).

The pIC50 is −log10 of the IC50, conventionally taken in molar units.

SMILES strings stand for the structures. pIC50: −log10 of the molar value.

This series has as its system complement activation. Particulars: alternative pathway-mediated erythrocyte lysis; cited from earlier work.

For the molecule `CC[C@H](C)[C@H](N)C(=O)N[C@H]1CSSC[C@@H](C(=O)N[C@H](C(N)=O)[C@@H](C)O)NC(=O)[C@H](CCCN=C(N)N)NC(=O)[C@H](Cc2cnc[nH]2)NC(=O)[C@H](Cc2cnc[nH]2)NC(=O)CNC(=O)[C@H](Cc2c[nH]c3ccccc23)NC(=O)[C@H](CC(=O)O)NC(=O)[C@H](CCC(N)=O)NC(=O)[C@H](C(C)C)NC(=O)[C@H](C(C)C)NC1=O` [Parent, ICV VQDWGH HRCT-NH2, reference compound], the negative logarithm of the IC50 (pIC50) is 4.92.
